Results as given in paper PMC11492426, “Design, synthesis, and biological evaluation of novel quinoline-based EGFR/HER-2 dual-target inhibitors as potential anti-tumor agents” (RSC Advances, 2024).

What was measured:
[1] = Cell viability assay (MTT) on MCF-10A normal cells; format: cell-based; conditions: human, MCF-10A mammary gland epithelial normal cells, MCF-10A cells, four-day incubation
Description: The impact of compounds 3a–h and 5a–d on cell viability was evaluated using the human mammary (MCF-10A) gland epithelium normal cell line. The MTT assay was used to evaluate the cell viability of 3a–h and 5a–d after a four-day incubation period on MCF-10A cells.[46] Refer to Appendix A for more details.
The effect of new compounds 3a–h and 5a–d on cell viability was evaluated using the MCF-10A (human mammary gland epithelium) normal cell line.
4.2. Biological evaluation
4.2.1 Cell Viability assay (MTT assay)
MTT assay was performed to investigate the effect of the synthesized compounds on mammary epithelial cells (MCF-10A). The cells were propagated in medium consisting of Ham's F-12 medium/ Dulbecco's modified Eagle's medium (DMEM) (1:1) supplemented with 10% foetal calf serum, 2 mM glutamine, insulin (10 μg/mL), hydrocortisone (500 ng/mL) and epidermal growth factor (20 ng/mL). Trypsin ethylenediamine tetra acetic acid (EDTA) was used to passage the cells after every 2-3 days. 96-well flat-bottomed cell culture plates were used to seed the cells at a density of 10^4 cells mL-1. The medium was aspirated from all the wells of culture plates after 24 h followed by the addition of synthesized compounds (in 200 μL medium to yield a final concentration of 0.1% (v/v) dimethyl sulfoxide) into individual wells of the plates. Four wells were designated to a single compound. The plates were allowed to incubate at 37°C for 96 h. Afterwards, the medium was aspirated and 3-[4,5-dimethylthiazol-2-yl]-2,5-diphenyltetrazolium bromide (MTT) (0.4 mg/mL) in medium was added to each well and subsequently incubated for 3 h. The medium was aspirated and 150 μL dimethyl sulfoxide (DMSO) was added to each well. The plates were vortexed followed by the measurement of absorbance at 540 nm on a microplate reader. The results were presented as inhibition (%) of proliferation in contrast to controls comprising 0.1% DMSO.

[2] = test system: A-549 lung cancer cell line; experiment: Antiproliferative assay, A-549; format: cell-based; conditions: Homo sapiens, A549; A-549 lung cancer cells; read-out: Antiproliferative activity IC50 ± SEM, A-549
[3] = test system: MCF-7 breast cancer cell line; experiment: Antiproliferative assay, MCF-7; format: cell-based; conditions: Homo sapiens, MCF7; MCF-7 breast cancer cells; read-out: Antiproliferative activity IC50 ± SEM, MCF-7
[4] = test system: Panc-1 pancreatic cancer cell line; experiment: Antiproliferative assay, Panc-1; format: cell-based; conditions: Homo sapiens; Panc-1 pancreatic cancer cells; read-out: Antiproliferative activity IC50 ± SEM, Panc-1
[5] = test system: HT-29 colon cancer cell line; experiment: Antiproliferative assay, HT-29; format: cell-based; conditions: Homo sapiens; HT-29 colon cancer cells; read-out: Antiproliferative activity IC50 ± SEM, HT-29
[6] = test system: four human cancer cell lines (A-549, MCF-7, Panc-1, HT-29); experiment: Antiproliferative assay, average over four cancer cell lines; format: cell-based; conditions: average IC50 over the four cancer cell lines
[7] = test system: Caspase-3; experiment: Caspase-3 activation assay in MCF-7 cells; format: cell-based, human
[8] = test system: Caspase-8; experiment: Caspase-8 activation assay in MCF-7 cells; format: cell-based, human
[9] = test system: Bax; experiment: Bax activation assay in MCF-7 cells; format: cell-based, human
Description: This lysate was diluted in Standard Diluent Buffer over the range of the assay and measured for human active caspase-8 content. (Cells are Plated in a density of 1.2 – 1.8 × 10,000 cells/well in a volume of 100µl complete growth medium + 100 ul of the tested compound per well in a 96-well plate for 24 hours before the enzyme assay for […].). […]
4.2.7. Bax activation assay
Bring all reagents, except the human Bax-α Standard, to room temperature for at least 30 minutes prior to opening. The human Bax-α Standard solution should not be left at room temperature for more than 10 minutes. All standards, controls and samples should be run in duplicate. Refer to the Assay Layout Sheet to determine the number of wells to be used and put any remaining wells with the desiccant back into the pouch and seal the ziploc. Store unused wells at 4 °C. Pipet 100 μL of Assay Buffer into the S0 (0 pg/mL standard) wells. Pipet 100 μL of Standards #1 through #6 into the appropriate wells. Pipet 100 μL of the Samples into the appropriate wells. Tap the plate gently to mix the contents. Seal the plate and incubate at room temperature on a plate shaker for 1 hour at ~500 rpm. Empty the contents of the wells and wash by adding 400 μL of wash solution to every well.
Repeat the wash 4 more times for a total of 5 washes. After the final wash, empty or aspirate the wells and firmly tap the plate on a lint free paper towel to remove any remaining wash buffer. Pipet 100 μL of yellow Antibody into each well, except the Blank. Seal the plate and incubate at room temperature on a plate shaker for 1 hour at ~500 rpm. Empty the contents of the wells and wash by adding 400 μL of wash solution to every well. Repeat the wash 4 more times for a total of 5 washes.
After the final wash, empty or aspirate the wells and firmly tap the plate on a lint free paper towel to remove any remaining wash buffer. Add 100 μL of blue Conjugate to each well, except the Blank.
Seal the plate and incubate at room temperature on a plate shaker for 30 minutes at ~500 rpm. Empty the contents of the wells and wash by adding 400 μL of wash solution to every well. Repeat the wash 4 more times for a total of 5 washes. After the final wash, empty or aspirate the wells and firmly tap […]
the plate on a lint free paper towel to remove any remaining wash buffer. Pipet 100 μL of Substrate Solution into each well. Incubate for 30 minutes at room temperature on a plate shaker at ~500 rpm.
Pipet 100 μL Stop Solution to each well. Blank the plate reader against the Blank wells, read the optical density at 450 nm. Calculate the average net Optical Density (OD) bound for each standard and sample by subtracting the average Blank OD from the average OD for each standard and sample.
Using linear graph paper, plot the Average Net OD for each standard versus Bax concentration in each standard. Approximate a straight line through the points. The concentration of Bax in the unknowns can be determined by interpolation. […]
Remove plate cover and empty the wells. […]
Incubate the microwell strips at room temperature (18° to 25°C) for about 15 minutes, if

[10] = test system: Bcl-2; experiment: Bcl-2 inhibition assay in MCF-7 cells; format: cell-based, human
Description: Additionally, the treatment led to a notable reduction in anti-apoptotic Bcl-2 expression levels, with a fold decrease of roughly 6 for compound 3e and 8 for compound 5a. Compounds 3e and 5a markedly elevated the Bax/Bcl-2 ratio compared to the control untreated cells. […]
4.2.8. Bcl-2 inhibition assay
Mix all reagents thoroughly without foaming before use. Wash the microwells twice with approximately 300 μL Wash Buffer per well with thorough aspiration of microwell contents between washes. Take caution not to scratch the surface of the microwells. After the last wash, empty the wells and tap microwell strips on absorbent pad or paper towel to remove excess Wash Buffer. Use the microwell strips immediately after washing or place upside down on a wet absorbent paper for not […]
longer than 15 minutes. […] Add 100 μL of Sample Diluent in duplicate to all standard wells and to the blank wells. Prepare standard (1:2 dilution) in duplicate ranging from 32 ng/mL to 0.5 ng/mL. Add 100 μL of Sample Diluent, in duplicate, to the blank wells. Add 80 μL of Sample Diluent, in duplicate, to the sample wells. Add 20 μL of each Sample, in duplicate, to the designated wells. Add 50 μL of diluted biotin-conjugate to all wells, including the blank wells. Cover with a plate cover and incubate at room temperature, on a microplate shaker at 100 rpm if available, for 2 hours. Remove plate cover and empty the wells. Wash microwell strips 3 times as described in step 2. Add 100 μL of diluted Streptavidin-HRP to all wells, including the blank wells. Cover with a plate cover and incubate at room temperature, on a microplate shaker at 100 rpm if available, for 1 hour. Remove plate cover and empty the wells. Wash microwell strips 3 times as described in step 2.
Proceed to the next step. Pipette 100 μl of mixed TMB Substrate Solution to all wells, including the blanks. Incubate the microwell strips at room temperature (18° to 25°C) for about 15 minutes, if available on a rotator set at 100 rpm. Avoid direct exposure to intense light. The point, at which the substrate reaction is stopped, is often determined by the ELISA reader. Many ELISA readers record absorbance only up to 2.0 O.D. Therefore, the color development within individual microwells must be watched by the person running the assay and the substrate reaction stopped before positive wells are no longer properly detectable. Stop the enzyme reaction by quickly pipetting 100 μL of Stop Solution into each well, including the blank wells. It is important that the Stop Solution is spread quickly and uniformly throughout the microwells to completely inactivate the enzyme. Results must be read immediately after the Stop Solution is added or within one hour if the microwell strips are stored at 2 - 8°C in the dark. Read absorbance of each microwell on a spectrophotometer using 450 nm as the primary wavelength.
4.3. Statistical analysis
Computerized Prism 5 program was used to statistically analyzed data using one-way ANOVA test followed by Tukey’s as post ANOVA for multiple comparison at P ≤.05. Data were presented as […]

| Structure (SMILES) | IC50 [2] | IC50 [3] | IC50 [4] | IC50 [5] | GI50 ([6]; Homo sapiens) | melting point | GI50 [6] | viability at 96 h, 50 µM [1] | Caspase-3 Conc. ([7]; treated at IC50 concentration) | Caspase-3 Fold change ([7]; versus untreated control) | Caspase-8 Conc. ([8]; treated at IC50 concentration) | Caspase-8 Fold change ([8]; versus untreated control) | Bax Conc. ([9]; treated at IC50 values) | Bax Fold change ([9]; versus untreated control) | Bcl-2 Conc. ([10]; treated at IC50 values) | Bcl-2 Fold reduction ([10]; versus untreated control) |
| --- | --- | --- | --- | --- | --- | --- | --- | --- | --- | --- | --- | --- | --- | --- | --- | --- |
| O=c1[nH]c2ccccc2c(O)c1/C=N/c1nc(-c2ccccc2)n[nH]1 [Compound 3a, (E) 4-hydroxy-3-(((3-phenyl-1H-1,2,4-triazol-5-yl)imino)methyl)quinolin-2(1H)-one] | 72 ± 7 nM | 69 ± 6 nM | 74 ± 7 nM | 74 ± 7 nM | 72 nM | 310 to 312 °C | – | 89% | – | – | – | – | – | – | – | – |
| COc1ccc2[nH]c(=O)c(/C=N/c3nc(-c4ccccc4)n[nH]3)c(O)c2c1 [Compound 3c, (E)-4-hydroxy-6-methoxy-3-(((3-phenyl-1H-1,2,4-triazol-5-yl)imino)methyl) quinolin-2(1H)-one] | 50 ± 5 nM | 46 ± 4 nM | 54 ± 5 nM | 52 ± 4 nM | 51 nM | 330 to 332 °C | – | 87% | – | – | – | – | – | – | – | – |
| Cn1c(=O)c(/C=N/c2nc(-c3ccccc3)n[nH]2)c(O)c2ccccc21 [Compound 3d, (E)-4-hydroxy-1-methyl-3-(((3-phenyl-1H-1,2,4-triazol-5-yl)imino)methyl)quinolin-2(1H)-one] | 76 ± 7 nM | 74 ± 7 nM | 76 ± 7 nM | 77 ± 7 nM | 76 nM | 295 to 297 °C | – | 89% | – | – | – | – | – | – | – | – |
| Cn1c(=O)c(/C=N/c2nc(-c3ccncc3)n[nH]2)c(O)c2ccccc21 [Compound 3h, (E)-4-hydroxy-1-methyl-3-(((3-(pyridin-4-yl)-1H-1,2,4-triazol-5-yl)imino)methyl) quinolin-2(1H)-one] | 82 ± 8 nM | 78 ± 7 nM | 86 ± 8 nM | 82 ± 8 nM | 82 nM | 310 to 312 °C | – | 85% | – | – | – | – | – | – | – | – |
| COc1ccc2[nH]c(=O)c(C=Nc3ccc(NS(=O)(=O)c4ncccn4)cc3)c(O)c2c1 [Compound 5c, N-(4-(((4-hydroxy-6-methoxy-2-oxo-1,2-dihydroquinolin-3-yl)methylene)amino)phenyl)pyrimidine-2-sulfonamide] | 53 ± 5 nM | 49 ± 4 nM | 54 ± 5 nM | 55 ± 5 nM | 53 nM | – | – | 86% | – | – | – | – | – | – | – | – |
| CN[C@@H]1C[C@H]2O[C@@](C)([C@@H]1OC)n1c3ccccc3c3c4c(c5c6ccccc6n2c5c31)C(=O)NC4 [Staurosporine, reference compound] | – | – | – | – | – | – | – | – | 465 ± 4 pg/mL | 7 | 1.60 ± 0.10 ng/mL | 18 | 288 ± 2 pg/mL | 32 | 1.00 ng/mL | 5 |

More lines, main results first:

| IC50 [2] | IC50 [3] | IC50 [4] | IC50 [5] | GI50 ([6]; Homo sapiens) | melting point | GI50 [6] | Structure (SMILES) | viability at 96 h, 50 µM [1] | Caspase-3 Conc. ([7]; treated at IC50 concentration) | Caspase-3 Fold change ([7]; versus untreated control) | Caspase-8 Conc. ([8]; treated at IC50 concentration) | Caspase-8 Fold change ([8]; versus untreated control) | Bax Conc. ([9]; treated at IC50 values) | Bax Fold change ([9]; versus untreated control) | Bcl-2 Conc. ([10]; treated at IC50 values) | Bcl-2 Fold reduction ([10]; versus untreated control) |
| --- | --- | --- | --- | --- | --- | --- | --- | --- | --- | --- | --- | --- | --- | --- | --- | --- |
| 70 ± 6 nM | 67 ± 6 nM | 70 ± 6 nM | 71 ± 6 nM | 70 nM | 325 to 327 °C | – | Cc1ccc2[nH]c(=O)c(/C=N/c3nc(-c4ccccc4)n[nH]3)c(O)c2c1 [Compound 3b, (E) 4-hydroxy-6-methyl-3-(((3-phenyl-1H-1,2,4-triazol-5-yl)imino)methyl)quinolin-2(1H)-one] | 90% | – | – | – | – | – | – | – | – |
| 62 ± 6 nM | 59 ± 5 nM | 65 ± 6 nM | 64 ± 6 nM | 63 nM | – | – | Cc1ccc2[nH]c(=O)c(/C=N/c3nc(-c4ccncc4)n[nH]3)c(O)c2c1 [Compound 3f, (E)-4-hydroxy-6-methyl-3-(((3-(pyridin-4-yl)-1H-1,2,4-triazol-5-yl)imino)methyl) quinolin-2(1H)-one] | 90% | – | – | – | – | – | – | – | – |
| 64 ± 6 nM | 60 ± 6 nM | 64 ± 6 nM | 66 ± 6 nM | 82 nM | – | 64 nM | COc1ccc2[nH]c(=O)c(/C=N/c3nc(-c4ccncc4)n[nH]3)c(O)c2c1 [Compound 3g, (E)-4-hydroxy-6-methoxy-3-(((3-(pyridin-4-yl)-1H-1,2,4-triazol-5-yl)imino)methyl) quinol-in-2(1H)-one] | 89% | – | – | – | – | – | – | – | – |
